Assay results: patent US20230123334A1, “AMINO LIPID COMPOUND, PREPARATION METHOD THEREFOR, AND APPLICATION THEREOF” (SHENZHEN SHENXIN BIOTECHNOLOGY CO., LTD., priority 2020, published 2023)

Tested on: HEK293 cells
Assay: Preliminary screening as DNA vectors, GFP transfection of HEK293 cells
Type: cell-based
Conditions: amino lipid/DOPE liposome with 75 ng plasmid DNA (psin-EGFP-IRES-Puro); number of GFP-expressing cells divided by total nuclei (Hoechst)
In short: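 First, amino lipid and DOPE were vortexed in sodium acetate buffer (pH 5.6) to form liposomes. Next, these were held with 75 ng EGFP plasmid at room temperature for 30 min. Finally, HEK293 cells were added, cultured at 37° C., Hoechst-stained, and GFP+/total nuclei scored by imaging.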

Row | SMILES | Absolute DNA transfection efficiency in HEK293 cells
1 | CCCCCCCCSc1nc(NCCCN2CCOCC2)nc(SCCCCCCCC)n1 [S8S8 D8] | 13.8%
2 | CCCCCCCCSc1nc(NCCCN2CCN(C)CC2)nc(SCCCCCCCC)n1 [S8S8 D9] | 12.1%
3 | CCCCCCCCSc1nc(NCC2CCN(C)CC2)nc(SCCCCCCCC)n1 [S8S8 D10] | 27.9%
4 | CCCCCCCCCSc1nc(NCCN(C)C)nc(SCCCCCCCC)n1 [S8S9 D1] | 15.6%
5 | CCCCCCCCCSc1nc(NCCN2CCOCC2)nc(SCCCCCCCC)n1 [S8S9 D2] | 37.0%
6 | CCCCCCCCCSc1nc(NCCN2CCCC2)nc(SCCCCCCCC)n1 [S8S9 D3] | 15.1%
7 | CCCCCCCCCSc1nc(NCCN2CCCCC2)nc(SCCCCCCCC)n1 [S8S9 D4] | 13.2%
8 | CCCCCCCCCSc1nc(NCCN2CCN(C)CC2)nc(SCCCCCCCC)n1 [S8S9 D5] | 5.8%
9 | CCCCCCCCCSc1nc(NCCCN(C)C)nc(SCCCCCCCC)n1 [S8S9 D6] | 6.3%
10 | CCCCCCCCCSc1nc(NCCN(CC)CC)nc(SCCCCCCCC)n1 [S8S9 D7] | 29.3%
11 | CCCCCCCCCSc1nc(NCCCN2CCOCC2)nc(SCCCCCCCC)n1 [S8S9 D8] | 16.0%
12 | CCCCCCCCCSc1nc(NCCCN2CCN(C)CC2)nc(SCCCCCCCC)n1 [S8S9 D9] | 23.5%
13 | CCCCCCCCCSc1nc(NCC2CCN(C)CC2)nc(SCCCCCCCC)n1 [S8S9 D10] | 27.9%
14 | CCCCCCCCCCSc1nc(NCCN(C)C)nc(SCCCCCCCC)n1 [S8S10 D1] | 16.3%
15 | CCCCCCCCCCSc1nc(NCCN2CCOCC2)nc(SCCCCCCCC)n1 [S8S10 D2] | 18.8%
16 | CCCCCCCCCCSc1nc(NCCN2CCCC2)nc(SCCCCCCCC)n1 [S8S10 D3] | 8.9%
17 | CCCCCCCCCCSc1nc(NCCN2CCCCC2)nc(SCCCCCCCC)n1 [S8S10 D4] | 8.3%
18 | CCCCCCCCCCSc1nc(NCCN2CCN(C)CC2)nc(SCCCCCCCC)n1 [S8S10 D5] | 19.5%
19 | CCCCCCCCCCSc1nc(NCCCN(C)C)nc(SCCCCCCCC)n1 [S8S10 D6] | 9.3%
20 | CCCCCCCCCCSc1nc(NCCN(CC)CC)nc(SCCCCCCCC)n1 [S8S10 D7] | 11.4%
21 | CCCCCCCCCCSc1nc(NCCCN2CCOCC2)nc(SCCCCCCCC)n1 [S8S10 D8] | 13.7%
22 | CCCCCCCCCCSc1nc(NCCCN2CCN(C)CC2)nc(SCCCCCCCC)n1 [S8S10 D9] | 25.6%
23 | CCCCCCCCCCSc1nc(NCC2CCN(C)CC2)nc(SCCCCCCCC)n1 [S8S10 D10] | 26.2%
24 | CCCCCCCCCCCSc1nc(NCCN(C)C)nc(SCCCCCCCC)n1 [S8S11 D1] | 9.2%
25 | CCCCCCCCCCCSc1nc(NCCN2CCOCC2)nc(SCCCCCCCC)n1 [S8S11 D2] | 17.9%

Row | SMILES | Absolute DNA transfection efficiency in HEK293 cells
26 | CCCCCCCCCCCSc1nc(NCCN2CCCC2)nc(SCCCCCCCC)n1 [S8S11 D3] | 6.1%
27 | CCCCCCCCCCCSc1nc(NCCN2CCCCC2)nc(SCCCCCCCC)n1 [S8S11 D4] | 8.5%
28 | CCCCCCCCCCCSc1nc(NCCN2CCN(C)CC2)nc(SCCCCCCCC)n1 [S8S11 D5] | 10.6%
29 | CCCCCCCCCCCSc1nc(NCCCN(C)C)nc(SCCCCCCCC)n1 [S8S11 D6] | 7.9%
30 | CCCCCCCCCCCSc1nc(NCCN(CC)CC)nc(SCCCCCCCC)n1 [S8S11 D7] | 10.3%
31 | CCCCCCCCCCCSc1nc(NCCCN2CCOCC2)nc(SCCCCCCCC)n1 [S8S11 D8] | 15.3%
32 | CCCCCCCCCCCSc1nc(NCCCN2CCN(C)CC2)nc(SCCCCCCCC)n1 [S8S11 D9] | 12.8%
33 | CCCCCCCCCCCSc1nc(NCC2CCN(C)CC2)nc(SCCCCCCCC)n1 [S8S11 D10] | 42.4%
34 | CCCCCCCCCCCCSc1nc(NCCN(C)C)nc(SCCCCCCCC)n1 [S8S12 D1] | 10.7%
35 | CCCCCCCCCCCCSc1nc(NCCN2CCOCC2)nc(SCCCCCCCC)n1 [S8S12 D2] | 16.1%
36 | CCCCCCCCCCCCSc1nc(NCCN2CCCC2)nc(SCCCCCCCC)n1 [S8S12 D3] | 10.9%
37 | CCCCCCCCCCCCSc1nc(NCCN2CCCCC2)nc(SCCCCCCCC)n1 [S8S12 D4] | 10.8%
38 | CCCCCCCCCCCCSc1nc(NCCN2CCN(C)CC2)nc(SCCCCCCCC)n1 [S8S12 D5] | 24.8%
39 | CCCCCCCCCCCCSc1nc(NCCCN(C)C)nc(SCCCCCCCC)n1 [S8S12 D6] | 12.6%
40 | CCCCCCCCCCCCSc1nc(NCCN(CC)CC)nc(SCCCCCCCC)n1 [S8S12 D7] | 9.3%
41 | CCCCCCCCCCCCSc1nc(NCCCN2CCOCC2)nc(SCCCCCCCC)n1 [S8S12 D8] | 34.4%
42 | CCCCCCCCCCCCSc1nc(NCCCN2CCN(C)CC2)nc(SCCCCCCCC)n1 [S8S12 D9] | 3.5%
43 | CCCCCCCCCCCCSc1nc(NCC2CCN(C)CC2)nc(SCCCCCCCC)n1 [S8S12 D10] | 23.5%
44 | CCCCCCCCCCCCN(CCCCCCCCCCCC)c1nc(NCCN(C)C)nc(SCCCCCCCC)n1 [S8^2N12 D1] | 0.0%
45 | CCCCCCCCCCCCN(CCCCCCCCCCCC)c1nc(NCCN2CCOCC2)nc(SCCCCCCCC)n1 [S8^2N12 D2] | 0.0%
46 | CCCCCCCCCCCCN(CCCCCCCCCCCC)c1nc(NCCN2CCCC2)nc(SCCCCCCCC)n1 [S8^2N12 D3] | 0.1%
47 | CCCCCCCCCCCCN(CCCCCCCCCCCC)c1nc(NCCN2CCCCC2)nc(SCCCCCCCC)n1 [S8^2N12 D4] | 0.0%
48 | CCCCCCCCCCCCN(CCCCCCCCCCCC)c1nc(NCCN2CCN(C)CC2)nc(SCCCCCCCC)n1 [S8^2N12 D5] | 0.8%
49 | CCCCCCCCCCCCN(CCCCCCCCCCCC)c1nc(NCCCN(C)C)nc(SCCCCCCCC)n1 [S8^2N12 D6] | 0.5%
50 | CCCCCCCCCCCCN(CCCCCCCCCCCC)c1nc(NCCN(CC)CC)nc(SCCCCCCCC)n1 [S8^2N12 D7] | 0.1%
